Test results from US12251469B2, “Sterically stabilized carrier compositions for treating a mammal” (VGSK Technologies, Inc., priority 2015, dated 2025).

Tested on: sensitized mice
Assay: Preliminary dose-response study of BUD in sensitized mice, histopathologic examination
Type: in vivo
Experimental: The dose of BUD chosen was based on preliminary dose-response studies with 5 to 50 μg of BUD as follows.
Each day, 5, 10, 15, 20 or 50 μg of BUD was administered to groups of sensitized mice, and the dose-dependent effects on the inflammatory parameters were evaluated.
The tissues were removed and fixed with 10% phosphate buffered formalin. Tissue samples were taken from the skin, spleen, liver, gastrointestinal tract, and kidney. The tissues were embedded in paraffin, sectioned at 5 μm thickness and stained with hematoxylin and eosin and analyzed using light microscopy.
Coded slides were examined by a pathologist in a blinded fashion for evidence of inflammatory changes, including epithelial hyperplasia and perivascular edema and accumulation of eosinophils, neutrophils, and mononuclear inflammatory cells. Each of the parameters evaluated was given an individual number score. Objective measurements of histopathological changes include aggregation of eosinophils around blood vessels (perivascular), accumulation of other inflammatory cells, presence of desquamation and hyperplasia of the epithelium, and infiltration of inflammatory cells.

## CCCC1O[C@@H]2C[C@H]3[C@@H]4CCC5=CC(=O)C=C[C@]5(C)[C@H]4[C@@H](O)C[C@]3(C)[C@]2(C(=O)CO)O1 (stereo partly shown) [Daily BUD, budesonide]
  granulomas or abnormalities in any of the tissues evaluated: no granulomas or abnormalities
